The target of data set [1] is T1, CB1 receptors in intestine submucose neurons (Rattus norvegicus, UniProt P20272).
T1 construct: host or cells: intestine submucose neurons (in vivo)
As to conditions: by activating CB1 receptors; cited from earlier work.

Data set [2] deals with intestinal inflammation. As to conditions: mice with induced IBD; cited from earlier work.
Data set [3] deals with NF-kB. Put plainly: cells. The conditions noted are these: for % INHIBITON OF TNF-α-INDUCED NF-κB ACTIVATION: compound alone. The data set is classed as cell-based.
Data set [4] relates to IL-1β. The experiment in a line: IL-1β release by LPS-stimulated human monocytes (ELISA). The format is cell-based. As to conditions: for release of IL-1β (IL-1) in LPS-stimulated monocytes: LPS 10 ng/ml, 24 h, rank order Denbinobin, CBD, CBG. As for the experimental part:
The inhibitory effect of CARMA-CBG extract on IL-1β release was studied in human peripheral mononuclear phagocytic cells. Monocytes from healthy human donors were prepared following a standardised protocol (Ficoll gradient preparation) using a completely endotoxin-free cultivation. Using 50 ml tubes, 25 ml Ficoll were loaded with 25 ml blood of buffy coats from healthy blood donors. The gradient was established by centrifugation at 1,800 r.p.m., 20° C. for 40 min by using slow acceleration and brakes. Peripheral blood mononuclear cells in the interphase were carefully removed and re-suspended in 50 ml pre-warmed phosphate buffered saline followed by centrifugation for 10 min at 1,600 r.p.m. and 20° C. The supernatant was discarded and the pellet washed in 50 ml PBS and centrifuged as described above. The pellet was then re-suspended in 50 ml RPMI-1640 low endotoxin-medium supplemented with 10% human serum (PAA). After counting the amount of cells in a particle counter, cells were seeded in 24-well plates for ELISA and incubated at 37° C./5% CO2. The medium and the non-adherent cells (lymphocytes) were removed and fresh RPMI-1640 medium containing 1% human serum was added. The monocytes were treated with LPS (10 ng/ml), in the absence or presence of increasing concentrations of CARMA-CBG extract dissolved in DMSO for 24 h. The production of the IL-1β was determined by ELISA. […] LPS-mediated activation in the absence of CARMA-CBG was arbitrarily set as 100% of IL-1β release (FIG. 5).
Monocytes were isolated from healthy human donors as indicated above, and then treated with LPS (10 ng/ml), in the absence or presence of either CBG, or CBD or Denbinobin, as indicated, dissolved in DMSO. The production of IL-1 was determined by ELISA, and mean values from two independent experiments are shown. Full LPS-mediated activation was arbitrarily set as 100%.
Monocytes from healthy human donors, were treated with LPS (10 ng/ml), in the absence or presence of either CBG, or CBD or Canflavin A or Denbinobin, combined as indicated. The production of IL-1 was determined by ELISA, and mean values from two independent experiments are shown.

Data set [5] concerns TNF-α. Put plainly: TNF-α release by LPS-stimulated human monocytes (ELISA). The data set is classed as cell-based. As to conditions: for release of TNF-α in LPS-stimulated monocytes: LPS 10 ng/ml, 24 h, rank order Denbinobin, CBD, CBG. On the procedure:
The inhibitory effect of CARMA-CBG extract on TNF-α release was studied in human peripheral mononuclear phagocytic cells. Monocytes were isolated as in Example 6 and were treated with LPS (10 ng/ml), in the absence or presence of increasing concentrations of CARMA-CBG extract dissolved in DMSO for 24 h. The production of the TNFα was determined by ELISA. […] LPS-mediated activation in the absence of CARMA-CBG was arbitrarily set as 100% of TNF-α release (FIG. 6).
The production of TNF-α was determined by ELISA, on the supernatant of LPS-treated monocytes, as indicated above, in the absence or presence of either CBG, or CBD or Denbinobin, as indicated.
Monocytes from healthy human donors, were treated with LPS (10 ng/ml), in the absence or presence of either CBG, or CBD or Canflavin A or Denbinobin, combined as indicated. The production of TNF-α was determined by ELISA as indicated above.
Background: ELISA stands for enzyme-linked immunosorbent assay.

Data set [6] relates to prostaglandin E2. The conditions noted are these: cited from earlier work.
The test system of data set [7] is AGS (gastric cancer) cells. Put plainly: Calcein-AM cytotoxicity assay, AGS. The conditions noted are these: 24 h, compound alone. On the procedure: (§1) The cytotoxic effect of the Cannabigerol (CBG) and Cannabidiol (CBD) alone or in combination was investigated by the Calcein-AM assay. Briefly, AGS, SW480 and HTC116 cells were cultivated at a density of 1.0×10^4 cells/ml in 96-well plates, 200 μl cell suspension per well and cultured in DMEM containing 10% fetal calf serum. Cells were treated with or without CBD, CBG or a combination of both compounds for 24 h, after which the wells were washed and the cells incubated with Calcein-AM (1 μM) (Molecular Probes) for 30 min. Then the fluorescence of viable cells was detected in a microtitre plate reader (TECAN Genius Pro). The intensity of fluorescence was inversely proportional to cell death induced by the compounds.

The subject of data set [8] is HCT-116 (Colon cancer) cells. The experiment in a line: Calcein-AM cytotoxicity assay, HCT-116. The conditions noted are these: HCT-116, 24 h, compound alone. On the procedure:
as §1

The test system of data set [9] is SW480 (Colon cancer) cells. Put plainly: Calcein-AM cytotoxicity assay, SW480. The conditions noted are these: SW480, 24 h, compound alone. As for the experimental part:
as §1

Data set [10] deals with leukaemia cell lines. As to conditions: cited from earlier work.
Data set [11] has as its system colon cancer cell lines. As to conditions: cited from earlier work.
In data set [12] the test system is HIV-1. The conditions noted are these: cited from earlier work.
Setting [13] is: Homo sapiens, Jurkat, read-out: % INHIBITON OF TNF-α-INDUCED NF-κB ACTIVATION
Where [14] appears, read: Homo sapiens, Monocyte, compound alone, 20 μM, read-out: % INHIBITION OF LPS-INDUCED IL-1 PRODUCTION
Setting [15] is: Homo sapiens, Monocyte, compound alone, 10 μM, read-out: % INHIBITION OF LPS-INDUCED TNF-α-PRODUCTION
Where [16] appears, read: Homo sapiens, Monocyte, compound alone, 20 μM, read-out: % INHIBITION OF LPS-INDUCED TNF-α-PRODUCTION

The source of these data is patent US20100222437A1, “C[…]-PSYCHOTROPIC CANNABINOIDS FOR THE TREATMENT OF INFLAMMATORY DISEASES” (priority 2007, published 2010).

Read-outs that look alike come from different tables or passages of the source.

T1 sequence (P20272 whole entry): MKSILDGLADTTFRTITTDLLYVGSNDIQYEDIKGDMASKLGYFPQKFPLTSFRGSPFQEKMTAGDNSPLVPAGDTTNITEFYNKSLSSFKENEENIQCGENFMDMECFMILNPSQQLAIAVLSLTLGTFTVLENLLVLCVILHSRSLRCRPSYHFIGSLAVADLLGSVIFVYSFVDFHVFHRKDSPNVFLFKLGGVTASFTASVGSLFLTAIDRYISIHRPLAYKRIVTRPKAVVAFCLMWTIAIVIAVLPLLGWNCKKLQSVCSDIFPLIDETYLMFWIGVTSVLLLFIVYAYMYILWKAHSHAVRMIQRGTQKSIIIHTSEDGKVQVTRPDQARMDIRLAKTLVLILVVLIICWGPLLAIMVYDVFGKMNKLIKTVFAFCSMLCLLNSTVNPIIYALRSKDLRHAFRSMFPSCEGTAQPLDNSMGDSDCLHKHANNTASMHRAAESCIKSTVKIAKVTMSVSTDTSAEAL

In the case of `CCCCCc1cc(O)c2c(c1)OC(C)(C)[C@@H]1CCC(C)=C[C@@H]21` [THC, Δ-9-Tetrahydrocannabinoid], the gastrointestinal motility result in data set [1] is reported as “inhibits”. Further, in [2], the intestinal inflammation result is “reduces”.

Turning to `COc1cc(-c2cc(=O)c3c(O)c(C/C=C(\C)CCC=C(C)C)c(O)cc3o2)ccc1O` [Canflavin A], the inhibition at 10 µM in data set [3] (setting [13]) stood at 16.6%; in data set [4] (Homo sapiens, Monocyte, compound alone, 10 μM, read-out: % INHIBITION OF LPS-INDUCED IL-1 PRODUCTION), 0%; in [5] (setting [15]) it was 0%. Moreover, the inhibition at 20 µM in data set [3] (setting [13]) was found to be 38.8%; in data set [4] (setting [14]), 0%; in [5] (setting [16]), 0%. The “release of prostaglandin E2” value in [6] is “can inhibit”.

As to `C=C(C)[C@@H]1CCC(C)=C[C@H]1c1c(O)cc(CCCCC)cc1O` [CBD, Cannabidiol], the “% INHIBITON OF TNF-α-INDUCED NF-κB ACTIVATION” value was 14.43% in [3] (10 μM) and 59.67% in [3] (20 μM). Moreover, in data set [4], the “release of IL-1β (IL-1) in LPS-stimulated monocytes” value (shortened to “release of IL-1β”) was “significant concentration-dependent decrease”. The “% INHIBITION OF LPS-INDUCED IL-1 PRODUCTION” value in [4] (compound alone, 10 μM) turned out to be 70.10%; in [4] (compound alone, 20 μM), 84.00%. Further, the “release of TNF-α in LPS-stimulated monocytes” value (“release of TNF-α” below) in data set [5] is “significant concentration-dependent decrease”. Moreover, the “% INHIBITION OF LPS-INDUCED TNF-α-PRODUCTION” value in data set [5] (compound alone, 10 μM) is listed as 33.30%; in data set [5] (compound alone, 20 μM), 83.60%. In addition, the “cytotoxicity (cell survival, Calcein-AM)” value in data set [7], in data set [8] and in data set [9] was “induced cytotoxicity” throughout.

In the case of `COC1=CC(=O)c2ccc3cc(OC)cc(O)c3c2C1=O` [Denbinobin], the inhibition at 1 µM in data set [3] (setting [13]) stood at 44.9%; in [4] (Homo sapiens, Monocyte, compound alone, 1 μM, read-out: % INHIBITION OF LPS-INDUCED IL-1 PRODUCTION) it was 37%; in data set [5] (Homo sapiens, Monocyte, compound alone, 1 μM, read-out: % INHIBITION OF LPS-INDUCED TNF-α-PRODUCTION), 32%. The inhibition at 2 µM in data set [3] (setting [13]) is 93.1%; in data set [5] (Homo sapiens, Monocyte, compound alone, 2 μM, read-out: % INHIBITION OF LPS-INDUCED TNF-α-PRODUCTION) it was 64%. Also, the “release of IL-1β” value in data set [4] is given as “significant concentration-dependent decrease”. The “% INHIBITION OF LPS-INDUCED IL-1 PRODUCTION” value in data set [4] (compound alone, 2 μM00) is listed as 70.00%. In data set [5], the “release of TNF-α” value is given as “significant concentration-dependent decrease”. Also, the anti-tumoral activity entry in data set [10] and in data set [11] was “anti-tumoral activities” each time. Moreover, the “HIV-1 replication in T cells” value in [12] is recorded as “can inhibit”.

Take `CCCCCc1cc(O)c(C/C=C(\C)CCC=C(C)C)c(O)c1` [CBG, Cannabigerol]: the inhibition at 10 µM in [3] (setting [13]) worked out at 0%; in [4] (Homo sapiens, Monocyte, read-out: % INHIBITION OF LPS-INDUCED IL-1 PRODUCTION), 9.4%; in [5] (setting [15]), 24.9%. Further, the results for the inhibition at 20 µM in [3] (setting [13]), in [4] (setting [14]) and in [5] (setting [16]) were 18.3%, 32.6% and 59.8%, respectively. The “release of IL-1β” value in data set [4] is given as “significant concentration-dependent decrease”. For the same compound, the “release of TNF-α” value in [5] is recorded as “significant concentration-dependent decrease”. Moreover, the “cytotoxicity (cell survival, Calcein-AM)” value in [7], in [8] and in data set [9] was “induced cytotoxicity” in each case.
